Results: patent US9249112B2, “Solid forms of a transthyretin dissociation inhibitor” (PFIZER INC., priority 2011, dated 2016)

Assays:
Format in all cases: physicochemical
[1] = hygroscopicity of the solid form; settings: crystalline form, anhydrous mono-meglumine salt
[2] = solubility in unbuffered water; settings: free acid
[3] = gel formation on contact with aqueous vehicles; settings: compound alone, on contact with aqueous vehicles such as water, phosphate buffer and hydrochloric acid
From the text: Without wishing to be bound by theory, it appears that such gel formation, upon oral administration, can hinder dissolution and/or bioavailability of such compounds, leading to, for example, stomach compaction and non-proportional plasma levels of drug in the subject as compared to the dose administered. […] Consequently, the pharmaceutical compositions herein are also contemplated for use in or further combination with any conventional formulation or route or method of administration where contact with water or other aqueous vehicles may occur, e.g., contact with blood or other body fluids as in various forms of parenteral administration (e.g., contact with blood in intravenous administration, implants, and the like), contact with mucous membranes (e.g., suppositories via vaginal or rectal administration, dry powder aerosols for pulmonary administration, transdermal patches or lozenges applied to mucous membranes, and the like). In such routes of administration, the benefits of the certain pharmaceutical compositions, such as resistance to gel formation, greater dissolution and bioavailability, dose proportionality, stability to storage, or the like may be beneficial.

## 6-carboxy-2-(3,5-dichlorophenyl)-benzoxazole meglumine [Compound 1]
[1]
  hygroscopicity: non-hygroscopic

## O=C(O)c1ccc2nc(-c3cc(Cl)cc(Cl)c3)oc2c1 [free acid, 6-carboxy-2-(3,5-dichlorophenyl)-benzoxazole]
[2]
  solubility: < 11 µg/mL
[3]
  gel formation: can form a gel
